Common to all, as to format: cell-based
One test addresses human TLR9 (Homo sapiens (Human), UniProt Q9NR96). The test can be described thus: TLR9 inhibition reporter assay (HEK-Blue, SEAP). To be noted: HEK-Blue cells overexpressing human TLR9, ODN2006 5 nM stimulation. A digest of the protocol:
(§1)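 HEK-Blue cells overexpressing the receptor carry a SEAP reporter under IFN-β minimal promoter with NF-κB/AP-1 sites. Compounds (0.05 nM–50 μM final) were preincubated 30 min at room temperature, then cells were stimulated with gardiquimod 7.5 μM (TLR7), R848 15.9 μM (TLR8) or ODN2006 5 nM (TLR9) for 22 h at 37 °C.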

Another test has as its target human TLR8 (Homo sapiens (Human), UniProt Q9NR97). Briefly: TLR8 inhibition reporter assay (HEK-Blue, SEAP). To be noted: HEK-Blue cells overexpressing human TLR8, R848 15.9 μM stimulation. A digest of the protocol: as §1
A general note: Reporter assays use an easily measured gene product as a stand-in for the process of interest.

Another test addresses human TLR7 (Homo sapiens (Human), UniProt Q9NYK1). Briefly: TLR7 inhibition reporter assay (HEK-Blue, SEAP). The following applies: HEK-Blue cells overexpressing human TLR7, gardiquimod 7.5 μM stimulation. The gist of the method:
as §1

As a reminder, the IC50 is the concentration needed to halve the response being measured. Low values mean greater potency, high ones weaker potency.

Sequence of human TLR7 (Q9NYK1 27-1049): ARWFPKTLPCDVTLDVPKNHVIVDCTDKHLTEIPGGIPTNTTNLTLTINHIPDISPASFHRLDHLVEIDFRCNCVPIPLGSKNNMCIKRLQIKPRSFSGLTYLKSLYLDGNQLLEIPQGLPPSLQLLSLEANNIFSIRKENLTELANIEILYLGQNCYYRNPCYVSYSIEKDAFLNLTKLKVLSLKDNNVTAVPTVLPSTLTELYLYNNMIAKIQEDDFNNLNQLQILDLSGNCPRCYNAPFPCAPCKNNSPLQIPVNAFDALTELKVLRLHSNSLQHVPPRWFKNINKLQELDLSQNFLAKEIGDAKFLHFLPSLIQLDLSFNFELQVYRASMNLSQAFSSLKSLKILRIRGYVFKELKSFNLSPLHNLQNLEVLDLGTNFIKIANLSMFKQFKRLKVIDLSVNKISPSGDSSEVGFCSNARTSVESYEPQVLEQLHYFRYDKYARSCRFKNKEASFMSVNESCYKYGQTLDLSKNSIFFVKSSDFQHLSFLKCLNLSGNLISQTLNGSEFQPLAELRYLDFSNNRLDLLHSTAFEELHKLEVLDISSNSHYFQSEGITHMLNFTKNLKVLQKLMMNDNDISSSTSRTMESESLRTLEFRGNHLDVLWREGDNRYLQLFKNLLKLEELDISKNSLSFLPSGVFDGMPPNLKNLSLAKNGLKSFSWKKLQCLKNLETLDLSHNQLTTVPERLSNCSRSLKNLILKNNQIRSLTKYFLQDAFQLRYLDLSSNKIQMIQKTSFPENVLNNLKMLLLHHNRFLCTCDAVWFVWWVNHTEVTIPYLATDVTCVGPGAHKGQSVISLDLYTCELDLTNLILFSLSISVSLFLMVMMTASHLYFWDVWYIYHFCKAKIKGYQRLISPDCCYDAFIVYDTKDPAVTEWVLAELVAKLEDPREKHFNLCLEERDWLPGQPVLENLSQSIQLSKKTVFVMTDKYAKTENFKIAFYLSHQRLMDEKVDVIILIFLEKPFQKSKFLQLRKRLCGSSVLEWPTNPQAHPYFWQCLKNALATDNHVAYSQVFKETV
Sequence of human TLR8 (Q9NR97 27-1041): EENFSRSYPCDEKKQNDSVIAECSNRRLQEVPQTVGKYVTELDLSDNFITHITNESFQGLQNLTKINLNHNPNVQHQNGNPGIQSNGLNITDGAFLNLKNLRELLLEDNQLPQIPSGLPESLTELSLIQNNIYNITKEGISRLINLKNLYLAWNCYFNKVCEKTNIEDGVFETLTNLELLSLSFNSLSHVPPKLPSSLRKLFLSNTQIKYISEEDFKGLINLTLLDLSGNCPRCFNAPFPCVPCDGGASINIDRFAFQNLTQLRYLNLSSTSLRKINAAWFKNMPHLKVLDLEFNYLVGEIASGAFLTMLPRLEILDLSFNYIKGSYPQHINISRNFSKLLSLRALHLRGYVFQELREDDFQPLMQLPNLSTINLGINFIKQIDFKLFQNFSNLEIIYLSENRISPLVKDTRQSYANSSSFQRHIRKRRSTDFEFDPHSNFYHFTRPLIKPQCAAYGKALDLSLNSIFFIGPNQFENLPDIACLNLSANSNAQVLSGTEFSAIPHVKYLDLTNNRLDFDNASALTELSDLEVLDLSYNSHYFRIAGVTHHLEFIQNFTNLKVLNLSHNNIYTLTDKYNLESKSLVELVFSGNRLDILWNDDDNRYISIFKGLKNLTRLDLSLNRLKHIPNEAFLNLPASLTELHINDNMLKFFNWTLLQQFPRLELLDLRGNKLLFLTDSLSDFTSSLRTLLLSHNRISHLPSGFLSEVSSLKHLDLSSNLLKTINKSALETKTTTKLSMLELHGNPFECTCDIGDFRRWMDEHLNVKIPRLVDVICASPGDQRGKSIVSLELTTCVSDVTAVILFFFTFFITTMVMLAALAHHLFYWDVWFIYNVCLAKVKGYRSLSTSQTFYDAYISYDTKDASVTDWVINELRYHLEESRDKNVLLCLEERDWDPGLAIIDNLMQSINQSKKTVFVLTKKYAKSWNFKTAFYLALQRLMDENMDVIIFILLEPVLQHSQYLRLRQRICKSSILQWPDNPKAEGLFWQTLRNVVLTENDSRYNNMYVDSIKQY
Sequence of human TLR9 (Q9NR96 26-1032): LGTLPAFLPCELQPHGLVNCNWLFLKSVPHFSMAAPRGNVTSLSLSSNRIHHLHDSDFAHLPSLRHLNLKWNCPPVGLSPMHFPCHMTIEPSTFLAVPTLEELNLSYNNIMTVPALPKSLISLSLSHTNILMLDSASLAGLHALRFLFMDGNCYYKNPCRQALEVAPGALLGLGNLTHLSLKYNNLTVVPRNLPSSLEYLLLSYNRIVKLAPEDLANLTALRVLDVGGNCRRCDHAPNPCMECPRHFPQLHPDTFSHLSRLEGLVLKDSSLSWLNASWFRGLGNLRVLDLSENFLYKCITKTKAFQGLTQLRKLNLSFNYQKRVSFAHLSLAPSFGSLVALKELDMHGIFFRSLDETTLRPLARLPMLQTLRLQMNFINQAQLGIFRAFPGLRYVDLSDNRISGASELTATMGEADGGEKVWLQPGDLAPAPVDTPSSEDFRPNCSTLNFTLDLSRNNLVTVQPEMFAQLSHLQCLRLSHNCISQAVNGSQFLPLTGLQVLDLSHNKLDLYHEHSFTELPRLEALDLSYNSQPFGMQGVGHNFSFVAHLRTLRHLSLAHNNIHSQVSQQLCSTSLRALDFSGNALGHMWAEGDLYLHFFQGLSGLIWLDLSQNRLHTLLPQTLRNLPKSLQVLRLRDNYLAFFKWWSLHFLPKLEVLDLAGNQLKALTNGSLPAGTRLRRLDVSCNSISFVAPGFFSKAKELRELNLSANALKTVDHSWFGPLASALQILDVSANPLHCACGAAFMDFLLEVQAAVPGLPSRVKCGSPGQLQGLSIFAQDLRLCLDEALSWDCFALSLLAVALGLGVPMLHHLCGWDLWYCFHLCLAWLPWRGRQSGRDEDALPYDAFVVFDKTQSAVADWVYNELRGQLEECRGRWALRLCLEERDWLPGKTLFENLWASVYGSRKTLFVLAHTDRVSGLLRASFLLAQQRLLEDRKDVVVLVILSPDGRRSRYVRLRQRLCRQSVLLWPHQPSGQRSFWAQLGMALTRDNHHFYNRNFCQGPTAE

On to `COc1ccc(-c2[nH]c3ccc(-c4nnc(C(=O)N5CCN(C(C)=O)CC5)o4)cc3c2C(C)C)cc1OC` [Example 92, 1-(4-(5-(2-(3,4-dimethoxyphenyl)-3-isopropyl-1H-indol-5-yl)-1,3,4-oxadiazole-2-carbonyl)piperazin-1-yl)ethan-1-one], for which the values for the IC50 against human TLR9, at human TLR8 and against human TLR7 were 26300 nM, 109 nM and 561 nM, respectively.
`COc1ccc(-c2[nH]c3ccc(-c4nnc(C(=O)N5CCC(N6CCCC6)CC5)o4)cc3c2C(C)C)cc1OC` [Example 95, (5-(2-(3,4-dimethoxyphenyl)-3-isopropyl-1H-indol-5-yl)-1,3,4-oxadiazol-2-yl)(4-(pyrrolidin-1-yl)piperidin-1-yl)methanone]: the IC50 against human TLR9 is 1400 nM; against human TLR8, 21 nM; on human TLR7, 99 nM.
With `CNC(=O)CN1CCC(c2nnc(-c3ccc4[nH]c(-c5ccnc6[nH]ncc56)c(C(C)C)c4c3)o2)CC1` [Example 88, 2-(4-(5-(3-isopropyl-2-(1H-pyrazolo[3,4-b]pyridin-4-yl)-1H-indol-5-yl)-1,3,4-oxadiazol-2-yl)piperidin-1-yl)-N-methylacetamide], the IC50 was found to be 4760 nM on human TLR9, 10 nM at human TLR8 and 294 nM on human TLR7.
Take `CC(C)c1c(-c2ccnc3[nH]ncc23)[nH]c2ccc(-c3nnc(C4CCCN(C)C4)o3)cc12` (stereo not drawn) [Example 167, 2-(3-isopropyl-2-(1H-pyrazolo[3,4-b]pyridin-4-yl)-1H-indol-5-yl)-5-(1-methylpiperidin-3-yl)-1,3,4-oxadiazole]: the IC50 worked out at 653 nM against human TLR9, 3.2 nM at human TLR8 and 66 nM against human TLR7.
Consider `Cc1cc(-c2[nH]c3ccc(-c4nnc(C(=O)NCCCN(C)C)o4)cc3c2C(C)C)cc(C)n1` [Example 224, N-(3-(dimethylamino)propyl)-5-(2-(2,6-dimethylpyridin-4-yl)-3-isopropyl-1H-indol-5-yl)-1,3,4-oxadiazole-2-carboxamide], for which the values for the IC50 on human TLR9, against human TLR8 and at human TLR7 were 229 nM, 2.5 nM and 11 nM, respectively.
As to `CC(C)c1c(-c2ccnc3[nH]ncc23)[nH]c2ccc(-c3ccc4c(cnn4C)c3)cc12` [Example 395, 4-(3-isopropyl-5-(1-methyl-1H-indazol-5-yl)-1H-indol-2-yl)-1H-pyrazolo[3,4-b]pyridine], the IC50 at human TLR9 amounted to 44000 nM; on human TLR8, 111 nM; against human TLR7, 486 nM.
For `COc1ccc(-c2[nH]c3ccc(-c4cccc(C(=O)NCC(N)=O)c4)cc3c2CC(F)(F)F)cc1OC` [Example 28, N-(2-amino-2-oxoethyl)-3-(2-(3,4-dimethoxyphenyl)-3-(2,2,2-trifluoroethyl)-1H-indol-5-yl)benzamide], the IC50 was found to be 32600 nM at human TLR9, 94 nM at human TLR8 and 587 nM against human TLR7.
On to `Cc1cc(-c2[nH]c3ccc(-c4nnc(Cc5nnn[nH]5)o4)cc3c2C(C)C)ccn1` [Example 76, 2-((1H-tetrazol-5-yl)methyl)-5-(3-isopropyl-2-(2-methylpyridin-4-yl)-1H-indol-5-yl)-1,3,4-oxadiazole], for which the IC50 was more than 50000 nM against human TLR9, 481 nM on human TLR8 and 1900 nM at human TLR7.
`CC(C)c1c(-c2ccc3nccn3c2)[nH]c2ccc(-c3nnc(C(=O)NCCN(C)C)o3)cc12` [Example 242, N-(2-(dimethylamino)ethyl)-5-(2-(imidazo[1,2-a]pyridin-6-yl)-3-isopropyl-1H-indol-5-yl)-1,3,4-oxadiazole-2-carboxamide]: the IC50 against human TLR9 was 306 nM; against human TLR8 it was 30 nM; against human TLR7, 22 nM.
Turning to `Cc1cc(-c2[nH]c3ccc(-c4cnc(N)nc4)cc3c2C(C)C)ccn1` [Example 193, 5-(3-isopropyl-2-(2-methylpyridin-4-yl)-1H-indol-5-yl)pyrimidin-2-amine], the results for the IC50 on human TLR9, against human TLR8 and at human TLR7 were more than 50000 nM, 71 nM and 264 nM, respectively.
On to `COc1ccc(-c2[nH]c3ccc(-c4ccc(-c5cccnc5)cc4)cc3c2C(C)C)cc1OC` [Example 406, 2-(3,4-dimethoxyphenyl)-3-isopropyl-5-(4-(pyridin-3-yl)phenyl)-1H-indole], for which the figures for the IC50 against human TLR9, at human TLR8 and against human TLR7 were more than 50000 nM, 2220 nM and 2610 nM, respectively.
For `COc1ccc(-c2[nH]c3ccc(-c4ccc(N5CCN(C6CCCC6)CC5)cc4)cc3c2C(C)C)cc1OC` [Example 403, 5-(4-(4-cyclopentylpiperazin-1-yl)phenyl)-2-(3,4-dimethoxyphenyl)-3-isopropyl-1H-indole], the IC50 was more than 50000 nM on human TLR9, 312 nM on human TLR8 and 570 nM on human TLR7.
As to `CNCC(=O)N1CCc2cc(-c3ccc4[nH]c(-c5cc(C)nc(C)c5)c(C(C)C)c4c3)sc2C1` [Example 331, 1-(2-(2-(2,6-dimethylpyridin-4-yl)-3-isopropyl-1H-indol-5-yl)-4,7-dihydrothieno[2,3-c]pyridin-6(5H)-yl)-2-(methylamino)ethan-1-one], the figures for the IC50 on human TLR9, at human TLR8 and against human TLR7 were 945 nM, 4.9 nM and 5.2 nM, respectively.
For `CC(C)c1c(-c2ccnc3[nH]ncc23)[nH]c2ccc(-c3nc4n(n3)CCNC4)cc12` [Example 206, 2-(3-isopropyl-2-(1H-pyrazolo[3,4-b]pyridin-4-yl)-1H-indol-5-yl)-5,6,7,8-tetrahydro-[1,2,4]triazolo[1,5-a]pyrazine], the IC50 was more than 50000 nM against human TLR9, 11 nM on human TLR8 and 4450 nM at human TLR7.
The like results for `Cc1cc(-c2[nH]c3ccc(-c4nnc(C5CCCN(C)C5)o4)cc3c2C(C)C)ccn1` (stereo not drawn) [Example 170, 2-(3-isopropyl-2-(2-methylpyridin-4-yl)-1H-indol-5-yl)-5-(1-methylpiperidin-3-yl)-1,3,4-oxadiazole] were, in that order, 660 nM, 0.6 nM and 11 nM.
For `CCc1c(-c2ccc(OC)c(OC)c2)[nH]c2ccc(-c3noc(C4CCNCC4)n3)cc12` [Example 459, 3-(2-(3,4-dimethoxyphenyl)-3-ethyl-1H-indol-5-yl)-5-(piperidin-4-yl)-1,2,4-oxadiazole], the IC50 on human TLR9 was 2180 nM; against human TLR8, 19 nM; at human TLR7, 306 nM.
Turning to `Cc1cc(-c2[nH]c3ccc(-c4cnc(N)cn4)cc3c2C(C)C)ccn1` [Example 359, 5-(3-isopropyl-2-(2-methylpyridin-4-yl)-1H-indol-5-yl)pyrazin-2-amine], the IC50 on human TLR9 stood at 14400 nM; on human TLR8, 7.5 nM; against human TLR7, 17 nM.
For `Cc1cc(-c2[nH]c3ccc(-c4nc(C)cs4)cc3c2C(C)C)ccn1` [Example 192, 2-(3-isopropyl-2-(2-methylpyridin-4-yl)-1H-indol-5-yl)-4-methylthiazole], the IC50 against human TLR9 was 2880 nM; on human TLR8, 213 nM; on human TLR7, 1000 nM.
Turning to `CNCCN1CCC(c2nnc(-c3ccc4[nH]c(-c5ccc(OC)c(OC)c5)c(C(C)C)c4c3)o2)CC1` [Example 24, 2-(4-(5-(2-(3,4-dimethoxyphenyl)-3-isopropyl-1H-indol-5-yl)-1,3,4-oxadiazol-2-yl)piperidin-1-yl)-N-methylethan-1-amine], the results for the IC50 against human TLR9, on human TLR8 and at human TLR7 were 179 nM, 3.7 nM and 56 nM, respectively.
Consider `CNCC(=O)N1CCc2cc(-c3ccc4[nH]c(-c5ccnc(C)c5)c(C(C)C)c4c3)sc2C1` [Example 252, 1-(2-(3-isopropyl-2-(2-methylpyridin-4-yl)-1H-indol-5-yl)-4,7-dihydrothieno[2,3-c]pyridin-6(5H)-yl)-2-(methylamino)ethan-1-one], for which the IC50 against human TLR9 is 788 nM; against human TLR8 it was 12 nM; against human TLR7, 22 nM.
Take `COc1ccc(-c2[nH]c3ccc(-c4nnc(C(=O)NC5CCN(C(C)C)CC5)o4)cc3c2C(C)C)cc1OC` [Example 59, 5-(2-(3,4-dimethoxyphenyl)-3-isopropyl-1H-indol-5-yl)-N-(1-isopropylpiperidin-4-yl)-1,3,4-oxadiazole-2-carboxamide]: the IC50 at human TLR9 was 936 nM; against human TLR8 it was 6.2 nM; against human TLR7, 55 nM.
As to `COc1ccc(-c2[nH]c3ccc(-c4ccc5c(c4)NCCC5)cc3c2C(C)C)cc1OC` [Example 161, 7-(2-(3,4-dimethoxyphenyl)-3-isopropyl-1H-indol-5-yl)-1,2,3,4-tetrahydroquinoline], the IC50 against human TLR9 was 5000 nM; against human TLR8, 1980 nM; against human TLR7, 2930 nM.
Consider `CC(C)c1c(-c2ccnc3[nH]ncc23)[nH]c2ccc(-c3ccc4[nH]c(=O)cc(O)c4c3)cc12` [Example 394, 4-hydroxy-6-(3-isopropyl-2-(1H-pyrazolo[3,4-b]pyridin-4-yl)-1H-indol-5-yl)quinolin-2(1H)-one], for which the IC50 was more than 50000 nM against human TLR9, 218 nM against human TLR8 and 919 nM on human TLR7.
As for `COc1ccc(-c2[nH]c3ccc(-c4nnc(C(=O)N5CCCN(C)CC5)o4)cc3c2C(C)C)cc1OC` [Example 93, (5-(2-(3,4-dimethoxyphenyl)-3-isopropyl-1H-indol-5-yl)-1,3,4-oxadiazol-2-yl)(4-methyl-1,4-diazepan-1-yl)methanone], the IC50 was 2020 nM on human TLR9, 15 nM against human TLR8 and 86 nM against human TLR7.
For the compound `Cc1cc(-c2[nH]c3ccc(-c4nc(C(=O)NCCCN5CCN(C)CC5)co4)cc3c2C(C)C)cc(C)n1` [Example 286, 2-(2-(2,6-dimethylpyridin-4-yl)-3-isopropyl-1H-indol-5-yl)-N-(3-(4-methylpiperazin-1-yl)propyl)oxazole-4-carboxamide], the IC50 on human TLR9 amounted to 202 nM; on human TLR8, 1.9 nM; at human TLR7, 12 nM.

(Values after patent publication US11420958B2, “Aryl and heteroaryl substituted indole compounds” (BRISTOL-MYERS SQUIBB COMPANY, priority 2017, dated 2022).)
